In patent publication US20230346831A1, “METHODS FOR TREATING […] USING LOW DOSE CARBON MONOXIDE” (priority 2020, published 2023):
Where “and” joins values, the source holds several entries; their conditions need not be identical. Equal values may be shown once.

Test system: MDA-MB-231/TGL cells
Experiment: metabolomic assay (polar metabolite profiling, mass spectrometry)
Type: cell-based, human
Method: Cells were seeded in a 10 cm cell culture plate with DMEM containing 10% FBS, 0.2 mM L-glutamine and 1% penicillin/streptomycin. After 16 hours of incubation, metabolites were extracted from the cells using 80% methanol. The remaining steps were carried out with no change according to the methods of Goncalves et al, PNAS, 115:4, E743-E752 (2018). All data analyses were done using MetaboAnalyst.
7 × 10^6 cells were seeded in 10-cm cell culture plates with DMEM containing 10% FBS, 0.2 mM L-glutamine and 1% penicillin/streptomycin. Additionally, MCF7/TGL/pQ was cultured in media containing 0.5 µgml^-1 puromycin and 25 mM HEPES. After 16 hours of incubation, metabolites were extracted from the cells using 80% methanol. The remaining steps were carried out by Weill Cornell Medicine Proteomics and Metabolomics Core Facility according to M. D. Goncalves et al., Proc Natl Acad Sci USA 115, E743-E752 (2018). All data analyses were done using MetaboAnalyst 4.0 (www.metaboanalyst.ca/).
To investigate whether 250 ppm CO mimics hypoxia, the HiF1α protein levels were examined in CO treated MCF7/TGL and MDA-MB-231/TGL cells. […] To determine whether 250 ppm CO affects metabolism, polar metabolites were profiled using two breast cancer cell lines, MCF7/TGL and MDA-MB-231/TGL (FIGS. 7-9).

[1] = MDA-MB-231/TGL cells treated with CO (250 ppm), replicates CO 1-3
[2] = MDA-MB-231/TGL cells, 250 ppm CO, 16 hours

[C-]#[O+] [CO, Carbon monoxide]
Peak Height of metabolite intensity: L-Aspartic acid (HMDB00191) [1]: 9,529,167 and 11,274,240 and 16,105,810 | Peak Height of metabolite intensity: L-Carnitine (HMDB00062) [1]: 180,708,600 and 186,528,100 and 206,022,400 | Peak Height of metabolite intensity: L-Cystathionine (HMDB00099) [1]: 371,785 and 449,627 and 589,036 | Peak Height of metabolite intensity: L-Dihydroorotic acid (HMDB03349) [1]: 281,053 and 429,139 and 448,915 | Peak Height of metabolite intensity: L-Glutamic acid (HMDB00148) [1]: 655,681,000 and 727,466,400 and 916,546,500 | Peak Height of metabolite intensity: L-Glutamine (HMDB00641) [1]: 1,601,450,000 and 1,636,785,000 and 1,523,599,000 | Peak Height of metabolite intensity: L-Histidine (HMDB00177) [1]: 120,776,800 and 113,578,300 and 158,867,000 | Peak Height of metabolite intensity: L-Isoleucine (HMDB00172) [1]: 271,615,500 and 275,153,400 and 327,851,400 | Peak Height of metabolite intensity: L-Kynurenine (HMDB00684) [1]: 280,930 and 306,374 and 392,315 | Peak Height of metabolite intensity: L-Lactic acid (HMDB00190) [1]: 289,904,000 and 340,883,500 and 383,011,600 | Peak Height of metabolite intensity: L-Leucine (HMDB00687) [1]: 283,061,200 and 273,188,600 and 323,263,900 | Peak Height of metabolite intensity: L-Lysine (HMDB00182) [1]: 24,306,150 and 24,075,250 and 28,401,380 | Peak Height of metabolite intensity: L-Methionine (HMDB00696) [1]: 84,626,580 and 79,234,880 and 99,088,640 | Peak Height of metabolite intensity: L-Palmitoylcarnitine (HMDB00222) [1]: 73,260 and 167,693 and 194,186 | Peak Height of metabolite intensity: L-Phenylalanine (HMDB00159) [1]: 221,726,300 and 225,785,500 and 288,325,000 | Peak Height of metabolite intensity: L-Proline (HMDB00162) [1]: 612,301,800 and 622,349,000 and 718,183,500 | Peak Height of metabolite intensity: L-Serine (HMDB00187) [1]: 47,600,670 and 48,117,350 and 49,703,860 | Peak Height of metabolite intensity: L-Threonine (HMDB00167) [1]: 137,793,200 and 134,164,900 and 175,180,900 | Peak Height of metabolite intensity: L-Tryptophan (HMDB00929) [1]: 29,250,240 and 30,006,710 and 37,673,960 | Peak Height of metabolite intensity: L-Tyrosine (HMDB00158) [1]: 62,958,740 and 63,148,990 and 80,943,860 | Peak Height of metabolite intensity: L-Valine (HMDB00883) [1]: 112,753,800 and 120,589,500 and 133,489,100 | Peak Height of metabolite intensity: Malic acid (HMDB00744) [1]: 185,995,600 and 208,411,100 and 232,110,400 | Peak Height of metabolite intensity: Mannitol (HMDB00765) [1]: 9,124,205 and 9,515,589 and 10,944,240 | Peak Height of metabolite intensity: Methionine sulfoxide (HMDB02005) [1]: 1,343,863 and 1,483,506 and 1,747,311 | Peak Height of metabolite intensity: Methylimidazoleacetic acid (HMDB02820) [1]: 1,358,938 and 1,418,950 and 1,508,563 | Peak Height of metabolite intensity: Myoinositol (HMDB00211) [1]: 29,719,830 and 34,248,940 and 40,470,300 | Peak Height of metabolite intensity: N6,N6,N6-Trimethyl-L-lysine (HMDB01325) [1]: 1,450,139 and 1,666,314 and 1,913,626 | Peak Height of metabolite intensity: N6-Acetyl-L-lysine (HMDB00206) [1]: 127,774 and 112,788 and 139,608 | Peak Height of metabolite intensity: N-Acetyl-L-alanine (HMDB00766) [1]: 3,499,773 and 3,556,484 and 4,596,263 | Peak Height of metabolite intensity: N-Acetyl-L-aspartic acid (HMDB00812) [1]: 82,644,790 and 91,504,070 and 102,958,000 | Peak Height of metabolite intensity: N-Acetyl-L-methionine (HMDB11745) [1]: 2,318,960 and 1,894,539 and 2,276,345 | Peak Height of metabolite intensity: N-Acetyl-glucosamine 1-phosphate (HMDB01367) [1]: 1,300,461 and 800,586 and 850,336 | Peak Height of metabolite intensity: N-Acetylasparagine (HMDB06028) [1]: 90,904 and 92,805 and 102,592 | Peak Height of metabolite intensity: N-Acetylaspartylglutamic acid (HMDB01067) [1]: 473,464 and 613,919 and 690,837 | Peak Height of metabolite intensity: N-Acetylglutamic acid (HMDB01138) [1]: 7,524,119 and 8,837,337 and 8,010,711 | Peak Height of metabolite intensity: N-Acetylglutamine (HMDB06029) [1]: 1,923,159 and 2,058,882 and 2,006,294 | Peak Height of metabolite intensity: N-Acetylornithine (HMDB03357) [1]: 261,750 and 259,387 and 327,139 | Peak Height of metabolite intensity: N-Acetylputrescine (HMDB02064) [1]: 5,287,508 and 7,257,189 and 5,943,667 | Peak Height of metabolite intensity: N-Formyl-L-methionine (HMDB01015) [1]: 2,242,009 and 2,343,563 and 2,318,203 | Peak Height of metabolite intensity: NAD (HMDB00902) [1]: 17,332,970 and 21,051,080 and 23,992,650 | Peak Height of metabolite intensity: NADH (HMDB01487) [1]: 583,067 and 148,307 and 116,715 | Peak Height of metabolite intensity: NADP (HMDB00217) [1]: 120,286 and 98,434 and 96,478 | Peak Height of metabolite intensity: NADPH (HMDB00221) [1]: 71,492 and 67,909 and 76,928 | Peak Height of metabolite intensity: Niacinamide (HMDB01406) [1]: 1,982,720 and 1,686,510 and 1,871,343 | Peak Height of metabolite intensity: Nicotinamide ribotide (HMDB00229) [1]: 110,026 and 75,372 and 93,843 | Peak Height of metabolite intensity: Ornithine (HMDB00214) [1]: 960,744 and 1,035,848 and 1,261,077 | Peak Height of metabolite intensity: Orotic acid (HMDB00226) [1]: 303,308 and 293,998 and 226,604 | Peak Height of metabolite intensity: Oxidized glutathione (HMDB03337) [1]: 3,793,739 and 4,422,168 and 4,949,576 | Peak Height of metabolite intensity: Oxoglutaric acid (HMDB00208) [1]: 40,551,530 and 45,257,220 and 44,892,300 | Peak Height of metabolite intensity: Pantothenic acid (HMDB00210) [1]: 66,785,200 and 78,653,480 and 81,031,300 | Peak Height of metabolite intensity: Phenylacetylglycine (HMDB00821) [1]: 1,773,254 and 1,725,235 and 1,760,408 | Peak Height of metabolite intensity: Phenyllactic acid (HMDB00779) [1]: 59,693 and 75,824 and 89,853 | Peak Height of metabolite intensity: Phosphoenolpyruvic acid (HMDB00263) [1]: 1,119,695 and 505,583 and 468,849 | Peak Height of metabolite intensity: Phosphorylcholine (HMDB01565) [1]: 926,340,400 and 954,637,100 and 1,004,940,000 | Peak Height of metabolite intensity: Propionylcamitine (HMDB00824) [1]: 42,262,630 and 48,738,950 and 53,591,860 | Peak Height of metabolite intensity: Pyridoxine (HMDB00239) [1]: 9,272,513 and 10,102,820 and 10,351,980 | Peak Height of metabolite intensity: Pyroglutamic acid (HMDB00267) [1]: 95,285,270 and 98,786,160 and 116,343,300 | Peak Height of metabolite intensity: Pyruvic acid (HMDB00243) [1]: 2,402,001 and 2,700,020 and 2,237,894 | Peak Height of metabolite intensity: Riboflavin (HMDB00244) [1]: 84,676 and 97,270 and 112,665 | Peak Height of metabolite intensity: S-Adenosylmethionine (HMDB01185) [1]: 6,948,937 and 8,437,885 and 9,944,495 | Peak Height of metabolite intensity: S-Lactoylglutathione (HMDB01066) [1]: 2,114,224 and 2,485,483 and 1,817,914 | Peak Height of metabolite intensity: Sedoheptulose 1,7-bisphosphate (HMDB60274) [1]: 119,260 and 114,671 and 139,219 | Peak Height of metabolite intensity: Succinic acid (HMDB00254) [1]: 9,808,415 and 11,432,620 and 14,473,460 | Peak Height of metabolite intensity: Taurine (HMDB00251) [1]: 250,114,800 and 184,320,000 and 217,876,200 | Peak Height of metabolite intensity: Taurochenodesoxycholic acid (HMDB00951) [1]: 47,031 and 60,620 and 60,122 | Peak Height of metabolite intensity: Thiamine (HMDB00235) [1]: 24,404,230 and 28,664,720 and 27,656,500 | Peak Height of metabolite intensity: Threonic acid (HMDB00943) [1]: 107,442,800 and 103,948,700 and 114,088,000 | Peak Height of metabolite intensity: Thymidine 5′-triphosphate (HMDB01342) [1]: 177,094 and 147,940 and 156,549 | Peak Height of metabolite intensity: Thymidine (HMDB00273) [1]: 143,606 and 96,280 and 76,717 | Peak Height of metabolite intensity: Thymine (HMDB00262) [1]: 962,069 and 884,966 and 960,234 | Peak Height of metabolite intensity: Ureidosuccinic acid (HMDB00828) [1]: 1,132,717 and 1,612,814 and 1,811,192 | Peak Height of metabolite intensity: Uric acid (HMDB00289) [1]: 2,415,527 and 1,430,740 and 933,580 | Peak Height of metabolite intensity: Uridine 5′-diphosphate (HMDB00295) [1]: 2,964,858 and 3,462,504 and 2,781,952 | Peak Height of metabolite intensity: Uridine 5′-monophosphate (HMDB00288) [1]: 904,984 and 1,359,673 and 975,233 | Peak Height of metabolite intensity: Uridine (HMDB00296) [1]: 1,893,519 and 318,302 and 299,157 | Peak Height of metabolite intensity: Uridine diphosphate glucose (HMDB00286) [1]: 4,959,327 and 5,703,347 and 6,869,287 | Peak Height of metabolite intensity: Uridine diphosphate-N-acetylglucosamine (HMDB00290) [1]: 20,151,160 and 26,809,930 and 32,502,900 | Peak Height of metabolite intensity: Uridine triphosphate (HMDB00285) [1]: 1,308,516 and 1,268,414 and 1,538,242 | Peak Height of metabolite intensity: Urocanic acid (HMDB00301) [1]: 334,329 and 651,672 and 192,858 | Peak Height of metabolite intensity: Xanthine (HMDB00292) [1]: 1,967,615 and 1,894,384 and 2,180,514 | Peak Height of metabolite intensity: Xanthylic acid (HMDB01554) [1]: 36,455 and 11,062 and 9,617 | Peak Height of metabolite intensity: cis-Aconitic acid (HMDB00072) [1]: 20,740,980 and 23,097,840 and 24,649,890 | Peak Height of metabolite intensity: dCTP (HMDB00998) [1]: 7,042 | Peak Height of metabolite intensity: dGDP (HMDB00960) [1]: 10,335,950 and 11,215,290 and 10,659,650 | Peak Height of metabolite intensity: dUMP (HMDB01409) [1]: 484,834 and 490,872 and 603,149 | citric acid and phosphoenolpyruvic acid [2]: did not provide statistically significant results | nine common metabolites (fumaric acid, L-Dihydroorotic acid, D-2-Hydroxyglutaric, malic acid, NAD, GDP-glucose, pyruvic acid, inosinic acid, oxoglutaric acid) [2]: significantly downregulated | pyruvic acid, oxoglutaric acid, malic acid, and fumaric acid (TCA intermediates) [2]: significantly downregulated | abundance of metabolites tested (metabolomics profiling) (MDA-MB-231/TGL cells, 250 ppm carbon monoxide for 16 hours): reduced the abundance of the majority of metabolites tested
